The test deals with T1, PLK4 (Homo sapiens, UniProt O00444).
T1 sequence (O00444 1-970): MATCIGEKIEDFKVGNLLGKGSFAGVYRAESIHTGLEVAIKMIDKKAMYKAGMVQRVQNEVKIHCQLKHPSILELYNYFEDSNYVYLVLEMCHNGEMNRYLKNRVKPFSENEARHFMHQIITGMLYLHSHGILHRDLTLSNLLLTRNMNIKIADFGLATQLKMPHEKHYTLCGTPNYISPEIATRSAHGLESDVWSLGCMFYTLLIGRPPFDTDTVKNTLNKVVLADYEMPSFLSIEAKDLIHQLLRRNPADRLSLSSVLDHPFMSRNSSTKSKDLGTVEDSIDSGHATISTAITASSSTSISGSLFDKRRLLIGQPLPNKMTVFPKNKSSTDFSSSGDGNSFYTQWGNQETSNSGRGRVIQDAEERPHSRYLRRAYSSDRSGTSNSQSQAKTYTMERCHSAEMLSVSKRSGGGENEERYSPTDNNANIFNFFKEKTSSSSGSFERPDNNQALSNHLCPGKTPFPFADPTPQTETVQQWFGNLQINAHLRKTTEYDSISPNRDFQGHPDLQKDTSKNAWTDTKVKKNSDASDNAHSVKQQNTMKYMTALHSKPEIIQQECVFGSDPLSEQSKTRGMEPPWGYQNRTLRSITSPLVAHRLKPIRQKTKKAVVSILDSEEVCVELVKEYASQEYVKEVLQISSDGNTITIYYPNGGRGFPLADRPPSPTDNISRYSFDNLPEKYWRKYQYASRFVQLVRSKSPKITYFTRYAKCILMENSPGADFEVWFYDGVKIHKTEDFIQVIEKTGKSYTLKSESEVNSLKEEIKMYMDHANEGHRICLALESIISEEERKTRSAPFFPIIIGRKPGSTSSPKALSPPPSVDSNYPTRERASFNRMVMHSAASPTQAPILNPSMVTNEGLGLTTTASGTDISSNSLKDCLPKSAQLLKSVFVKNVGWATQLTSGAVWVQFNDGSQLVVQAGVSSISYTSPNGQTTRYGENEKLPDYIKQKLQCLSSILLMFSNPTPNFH
The test is described as follows: Activity (IC50) of the Table 1 compounds as PLK4 inhibitors. The format is biochemical. The following applies: Table 1, IC50 class.

From patent US11612604B2, “Methods of treating cancer with PLK4 inhibitors” (LUDWIG INSTITUTE FOR CANCER RESEARCH LTD, priority 2017, dated 2023) come the findings set out here.

pIC50: −log10 of the molar value.

As to `COc1c(Nc2cc(C)[nH]n2)nc(Sc2ccc(NC(=O)C3CCCC3)cc2)nc1N(C)C`, the pIC50 is over 7.00.

`COCCNc1nc(Sc2ccc(NC(=O)C3CCCC3)cc2)nc(Nc2cc(C)[nH]n2)c1OC` had a pIC50 of over 7.00.

Regarding `COc1c(Nc2ncc(C)s2)nc(Sc2ccc(S(C)(=O)=O)cc2)nc1N1CCN(CCN(C)C)CC1`, the pIC50 is over 7.00.

With `COc1c(Nc2cc(C)[nH]n2)nc(Sc2ccc(NC(C)=O)cc2)nc1C1CCN(CCN2CCN(C)CC2)CC1`, the pIC50 was 6.00 to 7.00.

Take `COc1c(Nc2cc(C)[nH]n2)nc(Sc2ccc(S(=O)(=O)CCO)cc2)nc1N1CCN(CCN(C)C)CC1`: the pIC50 is over 7.00.

Turning to `CCCS(=O)(=O)c1ccc(Sc2nc(Cc3cc(C)[nH]n3)c(OC)c(N3CCN(CCN(C)C)CC3)n2)cc1`, the pIC50 is over 7.00.

Regarding `CCS(=O)(=O)c1ccc(Sc2nc(Nc3cc(C)[nH]n3)c(OC)c(N3CCC(CCN(C)C)CC3)n2)cc1`, the pIC50 is over 7.00.

`COc1c(Nc2cc(C)[nH]n2)nc(Sc2ccc(S(=O)(=O)CC(C)C)cc2)nc1N1CCN(CCN(C)C)CC1`: the pIC50 was over 7.00.

`CCS(=O)(=O)c1ccc(Sc2nc(Nc3cc(C)[nH]n3)c(OC)c(N3CCN(CCN4CCN(C)CC4)CC3)n2)cc1` gave a pIC50 of over 7.00.

Regarding `COc1c(Nc2cc(C)[nH]n2)nc(Sc2ccc(S(=O)(=O)C(C)C)cc2)nc1N1CCN(CCN(C)C)CC1`, the pIC50 is over 7.00.

`COc1c(Nc2cc(C)[nH]n2)nc(Sc2ccc(S(=O)(=O)Cc3ccc(F)cc3)cc2)nc1N1CCN(CCN(C)C)CC1` gave a pIC50 of over 7.00.

In turn, `COc1ccc(CS(=O)(=O)c2ccc(Sc3nc(Nc4cc(C)[nH]n4)c(OC)c(N4CCN(CCN(C)C)CC4)n3)cc2)cc1` had a pIC50 of over 7.00.

In turn, `COc1c(Nc2cc(C)[nH]n2)nc(Sc2ccc(S(=O)(=O)Cc3ccccc3Cl)cc2)nc1N1CCN(CCN(C)C)CC1` gave a negative-log IC50 (pIC50) of over 7.00.

For the compound `COc1c(Nc2cc(C)[nH]n2)nc(Sc2ccc(S(=O)(=O)Cc3cccc(Cl)c3)cc2)nc1N1CCN(CCN(C)C)CC1`, the negative logarithm of the IC50 (pIC50) is over 7.00.

Consider `COc1c(Nc2cc(C)[nH]n2)nc(Sc2ccc(S(=O)(=O)Cc3ccncc3)cc2)nc1N1CCN(CCN(C)C)CC1`, for which the negative-log IC50 (pIC50) is over 7.00.

`COc1c(Nc2cc(C)[nH]n2)nc(Sc2ccc(S(=O)(=O)Cc3ccccc3)cc2)nc1N1CCC(CCN(C)C)CC1`: the pIC50 is over 7.00.

Take `COc1c(Nc2cc(C)[nH]n2)nc(Sc2ccc(S(=O)(=O)Cc3ccccc3)cc2)nc1N1CCN(C)CC1`: the negative logarithm of the IC50 (pIC50) was over 7.00.

Consider `CCS(=O)(=O)c1ccc(Sc2nc(Nc3cc(C)[nH]n3)c(OC)c(N3CCN(C)CC3)n2)cc1`, for which the pIC50 is over 7.00.

In the case of `COc1c(Nc2cc(C)[nH]n2)nc(Sc2ccc(S(=O)(=O)Cc3cccnc3)cc2)nc1N1CCN(CCN(C)C)CC1`, the pIC50 was over 7.00.

The compound `COc1c(Nc2cc(C)[nH]n2)nc(Sc2ccc(S(=O)(=O)Cc3ccc(Cl)cc3)cc2)nc1N1CCN(CCN(C)C)CC1` showed a pIC50 of over 7.00.

For `COc1c(Nc2cc(C)[nH]n2)nc(Sc2ccc(S(=O)(=O)Cc3ccccc3)cc2)nc1N1CCN(CCN2C3CCCC2CCC3)CC1`, the pIC50 is over 7.00.

On to `COc1c(Nc2cc(C)[nH]n2)nc(Sc2ccc(S(=O)(=O)Cc3cccs3)cc2)nc1N1CCN(CCN(C)C)CC1`, for which the pIC50 is over 7.00.

`CCS(=O)(=O)c1ccc(Sc2nc(Nc3cc(C)[nH]n3)c(OC)c(N3CCNCC3)n2)cc1` had a pIC50 of over 7.00.

`COc1c(Nc2cc(C)[nH]n2)nc(Sc2ccc(S(=O)(=O)Cc3nccs3)cc2)nc1N1CCN(CCN(C)C)CC1` gave a pIC50 of over 7.00.

Take `CCS(=O)(=O)c1ccc(Sc2nc(Nc3cc(C)[nH]n3)c(OC)c(C3CCN(CCN(C)C)CC3)n2)cc1`: the pIC50 is over 7.00.

The compound `COc1c(Nc2cc(C)[nH]n2)nc(Sc2ccc(S(=O)(=O)Cc3ccccc3)cc2)nc1C1CCN(CCN(C)C)CC1` had a pIC50 of over 7.00.

As to `CCS(=O)(=O)c1ccc(Sc2nc(Nc3cc(C)[nH]n3)c(OC)c(N3CCC(CCN4C5CCCC4CCC5)CC3)n2)cc1`, the pIC50 was over 7.00.

With `COc1c(Nc2cc(C)[nH]n2)nc(Sc2ccc(S(=O)(=O)Cc3ncc[nH]3)cc2)nc1N1CCN(CCN(C)C)CC1`, the negative logarithm of the IC50 (pIC50) is over 7.00.

With `CCS(=O)(=O)c1ccc(Sc2nc(C)c(OC)c(Nc3cc(C)[nH]n3)n2)cc1`, the pIC50 is over 7.00.

Take `COc1c(C)nc(Sc2ccc(S(=O)(=O)Cc3ccccc3)cc2)nc1Nc1cc(C)[nH]n1`: the pIC50 is over 7.00.

The compound `COc1c(Nc2cc(C)[nH]n2)nc(Sc2ccc(S(=O)(=O)CCN(C)C)cc2)nc1N1CCN(CCN(C)C)CC1` showed a pIC50 of over 7.00.

`COc1c(Nc2cc(C)[nH]n2)nc(Sc2ccc(S(=O)(=O)c3ccccc3)cc2)nc1N1CCN(CCN(C)C)CC1` had a pIC50 of over 7.00.

The compound `COc1c(Nc2cc(C)[nH]n2)nc(Sc2ccc(S(=O)(=O)Cc3ncco3)cc2)nc1N1CCN(CCN(C)C)CC1` showed a pIC50 of over 7.00.

Take `CCOc1c(Nc2cc(C)[nH]n2)nc(Sc2ccc(S(=O)(=O)CC)cc2)nc1N1CCN(CCN(C)C)CC1`: the pIC50 was over 7.00.

In turn, `CCOc1c(Nc2cc(C)[nH]n2)nc(Sc2ccc(S(=O)(=O)Cc3ccccc3)cc2)nc1N1CCN(CCN(C)C)CC1` had a pIC50 of over 7.00.

For `COc1c(Nc2cc(C)[nH]n2)nc(Sc2ccc(S(=O)(=O)Cc3ccccc3)cc2)nc1N1CCOCC1`, the pIC50 was over 7.00.

For `COc1c(Nc2cc(C)[nH]n2)nc(Sc2ccc(S(=O)(=O)Cc3ccccc3)cc2)nc1N(C)C`, the pIC50 was over 7.00.

`COc1c(Nc2cc(C)[nH]n2)nc(Sc2ccc(S(=O)(=O)Cc3ccccc3)cc2)nc1N1CCCCC1` gave a negative-log IC50 (pIC50) of over 7.00.

`COc1c(Nc2cc(C)[nH]n2)nc(Sc2ccc(S(=O)(=O)Cc3ccccc3)cc2)nc1N1CCN(CCN2CCN(C)CC2)CC1` gave a pIC50 of over 7.00.

In turn, `COc1c(Nc2cc(C)[nH]n2)nc(Sc2ccc(S(=O)(=O)Cc3ccccc3)cc2)nc1N1CCN(CCN2C3CCCC2CC3)CC1` had a pIC50 of over 7.00.

Turning to `Cc1cc(Nc2nc(Sc3ccc(S(=O)(=O)Cc4ccccc4)cc3)nc(N3CCN(CCN(C)C)CC3)c2C)n[nH]1`, the pIC50 was over 7.00.

`Cc1cc(Nc2cc(N3CCN(CCN(C)C)CC3)nc(Sc3ccc(S(=O)(=O)Cc4ccccc4)cc3)n2)n[nH]1` had a pIC50 of over 7.00.

On to `COc1c(Nc2cc[nH]n2)nc(Sc2ccc(S(=O)(=O)Cc3ccccc3)cc2)nc1N1CCN(CCN(C)C)CC1`, for which the pIC50 was over 7.00.

The compound `CCS(=O)(=O)c1ccc(Sc2nc(Nc3cc(C)[nH]n3)c(OC)c(N3CCCCC3)n2)cc1` had a pIC50 of over 7.00.

Compound `CCS(=O)(=O)c1ccc(Sc2nc(Nc3cc(C)[nH]n3)c(OC)c(N3CCOCC3)n2)cc1` showed a pIC50 of over 7.00.

`COc1c(Nc2cc(C)[nH]n2)nc(Sc2ccc(S(=O)(=O)Cc3cccc([N+](=O)[O-])c3)cc2)nc1N1CCN(CCN(C)C)CC1` showed a pIC50 of over 7.00.

As to `COc1c(Nc2cc(C)[nH]n2)nc(Sc2ccc(S(=O)(=O)Cc3ccc([N+](=O)[O-])cc3)cc2)nc1N1CCN(CCN(C)C)CC1`, the pIC50 was over 7.00.

The compound `CCN(CC)c1nc(Sc2ccc(S(=O)(=O)Cc3ccccc3)cc2)nc(Nc2cc(C)[nH]n2)c1OC` gave a pIC50 of over 7.00.

For `CCN(CC)c1nc(Sc2ccc(S(=O)(=O)CC)cc2)nc(Nc2cc(C)[nH]n2)c1OC`, the pIC50 is over 7.00.

For the compound `CCOc1c(Nc2cc(C)[nH]n2)nc(Sc2ccc(S(=O)(=O)Cc3ccccc3)cc2)nc1N1CCNCC1`, the pIC50 was over 7.00.

The compound `CCOc1c(Nc2cc(C)[nH]n2)nc(Sc2ccc(S(=O)(=O)CC)cc2)nc1N1CCNCC1` gave a pIC50 of over 7.00.

In turn, `COc1c(Nc2cc(C)[nH]n2)nc(Sc2ccc(S(=O)(=O)Cc3ccc(F)cc3F)cc2)nc1N1CCN(CCN(C)C)CC1` gave a negative-log IC50 (pIC50) of over 7.00.

`COc1c(Nc2cc(C)[nH]n2)nc(Sc2ccc(S(=O)(=O)Cc3ccccc3F)cc2)nc1N1CCN(CCN(C)C)CC1` had a pIC50 of over 7.00.

`COc1c(Nc2cc(C)[nH]n2)nc(Sc2ccc(S(=O)(=O)Cc3ccccc3)cc2)nc1N1CCN(CCN(C)c2ccccc2)CC1` had a pIC50 of over 7.00.

For the compound `CCCOc1c(Nc2cc(C)[nH]n2)nc(Sc2ccc(S(=O)(=O)Cc3ccccc3)cc2)nc1N1CCN(CCN(C)C)CC1`, the pIC50 was over 7.00.

Compound `Cc1cc(Nc2nc(Sc3ccc(S(=O)(=O)Cc4ccccc4)cc3)nc(N3CCN(CCN(C)C)CC3)c2OC(C)C)n[nH]1` showed a pIC50 of over 7.00.

In turn, `COc1c(Nc2cc(C)[nH]n2)nc(Sc2ccc(S(=O)(=O)Cc3cccc(O)c3)cc2)nc1N1CCN(CCN(C)C)CC1` had a pIC50 of over 7.00.

The compound `COc1c(Nc2cc(C)[nH]n2)nc(Sc2ccc(S(=O)(=O)Cc3cccc(OCc4ccccc4)c3)cc2)nc1N1CCN(CCN(C)C)CC1` gave a pIC50 of over 7.00.

Consider `CCOc1c(Nc2cc(C)[nH]n2)nc(Sc2ccc(S(=O)(=O)Cc3ccccc3)cc2)nc1N1CCN(CCN2C3CCCC2CC3)CC1`, for which the pIC50 was over 7.00.

`CCOc1c(Nc2cc(C)[nH]n2)nc(Sc2ccc(S(=O)(=O)CC)cc2)nc1N1CCC(CCN(C)C)CC1` showed a pIC50 of over 7.00.

In general, pIC50 refers to the negative decadic logarithm of the IC50, by convention in mol/L. A low value points to a large IC50.
